Laboratory results: patent US10336775B2 (Asceneuron SA, priority 2014, dated 2019)

Target: His-Tagged hOGA (human O-GlcNAcase) (Homo sapiens (Human), UniProt O60502)
Assay: Human O-GlcNAcase enzyme inhibition assay (Example B01)
Assay type: biochemical
Conditions: OGA enzyme inhibition assay; activity range classes defined in μM; read-out: OGA IC50

Sequence of His-Tagged hOGA (human O-GlcNAcase) (O60502 whole entry): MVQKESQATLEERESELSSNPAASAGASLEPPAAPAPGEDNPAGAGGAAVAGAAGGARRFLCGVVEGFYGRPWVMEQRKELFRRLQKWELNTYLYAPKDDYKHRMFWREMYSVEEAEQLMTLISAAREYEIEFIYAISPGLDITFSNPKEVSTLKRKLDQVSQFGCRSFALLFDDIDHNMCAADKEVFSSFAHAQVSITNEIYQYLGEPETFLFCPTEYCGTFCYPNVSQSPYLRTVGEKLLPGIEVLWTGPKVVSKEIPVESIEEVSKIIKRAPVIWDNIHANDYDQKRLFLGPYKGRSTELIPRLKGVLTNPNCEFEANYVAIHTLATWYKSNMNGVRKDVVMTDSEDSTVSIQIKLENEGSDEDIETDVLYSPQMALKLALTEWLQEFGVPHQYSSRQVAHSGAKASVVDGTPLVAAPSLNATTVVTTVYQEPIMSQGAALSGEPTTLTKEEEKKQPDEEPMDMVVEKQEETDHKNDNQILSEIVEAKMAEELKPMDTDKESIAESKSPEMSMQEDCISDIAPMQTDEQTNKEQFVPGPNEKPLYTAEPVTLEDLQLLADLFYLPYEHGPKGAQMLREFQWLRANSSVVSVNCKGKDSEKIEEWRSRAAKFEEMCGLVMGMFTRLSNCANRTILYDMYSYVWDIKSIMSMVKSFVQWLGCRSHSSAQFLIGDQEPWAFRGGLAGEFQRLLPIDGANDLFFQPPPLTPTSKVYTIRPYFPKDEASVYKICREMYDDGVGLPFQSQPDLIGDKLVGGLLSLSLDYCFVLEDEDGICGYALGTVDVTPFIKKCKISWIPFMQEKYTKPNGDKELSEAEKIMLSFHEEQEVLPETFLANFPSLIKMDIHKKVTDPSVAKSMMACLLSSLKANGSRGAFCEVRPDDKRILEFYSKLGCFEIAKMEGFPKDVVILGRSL

Row | IC50 | SMILES
1 | 0.2 to 1 µM | Cc1csc(C2CCN(C(C)c3ccc4c(c3)OCO4)CC2)n1 (racemic) [Example 1, 2-(1-(1-(Benzo[d][1,3]dioxol-5-yl)ethyl)piperidin-4-yl)-4-methylthiazole]
2 | 0.2 to 1 µM | Cc1noc(C2CCN(C(C)c3ccc4c(c3)OCO4)CC2)n1 (racemic) [Example 4, 5-(1-(1-(Benzo[d][1,3]dioxol-5-yl)ethyl)piperidin-4-yl)-3-methyl-1,2,4-oxadiazole]
3 | 0.2 to 1 µM | Cc1ccnc(N2CCN(C(C)c3ccc4c(c3)OCO4)CC2)n1 (racemic) [Example 9, 2-(4-(1-(Benzo[d][1,3]dioxol-5-yl)ethyl)piperazin-1-yl)-4-methylpyrimidine]
4 | 0.2 to 1 µM | CC(C)c1csc(N2CCN(C(C)c3ccc4c(c3)OCO4)CC2)n1 (racemic) [Example 12, 2-(4-(1-(Benzo[d][1,3]dioxol-5-yl)ethyl)piperazin-1-yl)-4-isopropylthiazole]
5 | 0.2 to 1 µM | CC(c1ccc2c(c1)OCO2)N1CCN(c2nc(C(F)(F)F)cs2)CC1 (racemic) [Example 13, 2-(4-(1-(Benzo[d][1,3]dioxol-5-yl)ethyl)piperazin-1-yl)-4-(trifluoromethyl)thiazole]
6 | 1 to 10 µM | CC(c1ccc2c(c1)OCO2)N1CCN(c2nc(C(C)(C)C)cs2)CC1 (racemic) [Example 16, 2-(4-(1-(benzo[d][1,3]dioxol-5-yl)ethyl)piperazin-1-yl)-4-(tert-butyl)thiazole]
7 | 0.2 to 1 µM | Cc1cccc(N2CCN(C(C)c3ccc4c(c3)OCO4)CC2)n1 (racemic) [Example 21, 1-(1-(Benzo[d][1,3]dioxol-5-yl)ethyl)-4-(6-methylpyridin-2-yl)piperazine]
8 | 0.05 to 0.2 µM | CC(=O)Nc1ccnc(N2CCN(C(C)c3ccc4c(c3)OCO4)CC2)n1 (racemic) [Example 23, N-(2-(4-(1-(Benzo[d][1,3]dioxol-5-yl)ethyl)piperazin-1-yl)pyrimidin-4-yl)acetamide]
9 | 0.05 to 0.2 µM | CC(c1ccc2c(c1)OCO2)N1CCN(c2cc(Cl)ncn2)CC1 (racemic) [Example 24, 4-(4-(1-(Benzo[d][1,3]dioxol-5-yl)ethyl)piperazin-1-yl)-6-chloropyrimidine]
10 | 0.05 to 0.2 µM | CC(c1ccc2c(c1)OCO2)N1CCN(c2cnc(Cl)cn2)CC1 (racemic) [Example 25]
11 | 0.05 to 0.2 µM | CNC(=O)c1csc(N2CCN(C(C)c3ccc4c(c3)OCO4)CC2)n1 (racemic) [Example 30, 2-(4-(1-(Benzo[d][1,3]dioxol-5-yl)ethyl)piperazin-1-yl)-N-methylthiazole-4-carboxamide]
12 | 0.05 to 0.2 µM | CC(c1ccc2c(c1)OCO2)N1CCN(c2nc(C(N)=O)cs2)CC1 (racemic) [Example 35, 2-(4-(1-(Benzo[d][1,3]dioxol-5-yl)ethyl)piperazin-1-yl)thiazole-4-carboxamide]

Second part, the compound before the results:

Row | SMILES | IC50
13 | Cc1nnc(C2CCN(C(C)c3ccc4c(c3)OCO4)CC2)o1 (racemic) [Example 2, 2-(1-(1-(benzo[d][1,3]dioxol-5-yl)ethyl)piperidin-4-yl)-5-methyl-1,3,4-oxadiazole] | 0.2 to 1 µM
14 | Cc1cnn(C2CCN(C(C)c3ccc4c(c3)OCO4)CC2)c1 (racemic) [Example 3, 1-(1-(benzo[d][1,3]dioxol-5-yl)ethyl)-4-(4-methyl-1H-pyrazol-1-yl)piperidine] | 1 to 10 µM
15 | CC(c1ccc2c(c1)OCO2)N1CCN(c2nc(-c3ccccc3)cs2)CC1 (racemic) [Example 5, 2-(4-(1-(Benzo[d][1,3]dioxol-5-yl)ethyl)piperazin-1-yl)-4-phenylthiazole] | 0.2 to 1 µM
16 | COc1ccc(-c2csc(N3CCN(C(C)c4ccc5c(c4)OCO5)CC3)n2)cc1 (racemic) [Example 6, 2-(4-(1-(Benzo[d][1,3]dioxol-5-yl)ethyl)piperazin-1-yl)-4-(4-methoxyphenyl)thiazole] | 1 to 10 µM
17 | CC(c1ccc2c(c1)OCO2)N1CCN(c2nccs2)CC1 (racemic) [Example 7, 2-(4-(1-(Benzo[d][1,3]dioxol-5-yl)ethyl)piperazin-1-yl)thiazole] | 0.2 to 1 µM
18 | CC(c1ccc2c(c1)OCO2)N1CCN(c2cnc(I)nc2)CC1 (racemic) [Example 8, -5-(4-(1-(benzo[d][1,3]dioxol-5-yl)ethyl)piperazin-1-yl)-2-iodopyrimidine] | 0.05 to 0.2 µM
19 | CC(c1ccc2c(c1)OCO2)N1CCN(c2ccccn2)CC1 (racemic) [Example 10, 1-(1-(Benzo[d][1,3]dioxol-5-yl)ethyl)-4-(pyridin-2-yl)piperazine] | 0.2 to 1 µM
20 | Cc1ccc(N2CCN(C(C)c3ccc4c(c3)OCO4)CC2)nc1 (racemic) [Example 14, 1-(1-(Benzo[d][1,3]dioxol-5-yl)ethyl)-4-(5-methylpyridin-2-yl)piperazine] | 0.2 to 1 µM
21 | CCOC(=O)c1csc(N2CCN(C(C)c3ccc4c(c3)OCO4)CC2)n1 (racemic) [Example 17, Ethyl 2-(4-(1-(benzo[d][1,3]dioxol-5-yl)ethyl)piperazin-1-yl)thiazole-4-carboxylate] | 0.2 to 1 µM
22 | CC(c1ccc2c(c1)OCO2)N1CCN(c2nc(C(=O)O)cs2)CC1 (racemic) [Example 18, 2-(4-(1-(Benzo[d][1,3]dioxol-5-yl)ethyl)piperazin-1-yl)thiazole-4-carboxylic acid] | 0.05 to 0.2 µM
23 | CCc1csc(N2CCN(C(C)c3ccc4c(c3)OCO4)CC2)n1 (racemic) [Example 19, 2-(4-(1-(Benzo[d][1,3]dioxol-5-yl)ethyl)piperazin-1-yl)-4-ethylthiazole] | 0.2 to 1 µM
24 | CC(c1ccc2c(c1)OCO2)N1CCN(c2ccc(Cl)cn2)CC1 (racemic) [Example 20] | 0.2 to 1 µM
25 | CC(c1ccc2c(c1)OCO2)N1CCN(c2nccc(N)n2)CC1 (racemic) [Example 22, 2-(4-(1-(Benzo[d][1,3]dioxol-5-yl)ethyl)piperazin-1-yl)pyrimidin-4-amine] | 0.05 to 0.2 µM
26 | CCOC(=O)c1cnc(N2CCN(C(C)c3ccc4c(c3)OCO4)CC2)s1 (racemic) [Example 27, Ethyl 2-(4-(1-(benzo[d][1,3]dioxol-5-yl)ethyl)piperazin-1-yl)thiazole-5-carboxylate] | 0.2 to 1 µM
27 | CC(c1ccc2c(c1)OCO2)N1CCN(c2ncc(CO)s2)CC1 (racemic) [Example 28, (2-(4-(1-(Benzo[d][1,3]dioxol-5-yl)ethyl)piperazin-1-yl)thiazol-5-yl)methanol] | 0.05 to 0.2 µM
28 | CC(c1ccc2c(c1)OCO2)N1CCN(c2nc(CO)cs2)CC1 (racemic) [Example 29, (2-(4-(1-(Benzo[d][1,3]dioxol-5-yl)ethyl)piperazin-1-yl)thiazol-4-yl)methanol] | 0.05 to 0.2 µM
29 | CC(C)NC(=O)c1csc(N2CCN(C(C)c3ccc4c(c3)OCO4)CC2)n1 (racemic) [Example 32, 2-(4-(1-(Benzo[d][1,3]dioxol-5-yl)ethyl)piperazin-1-yl)-N-isopropylthiazole-4-carboxamide] | 0.2 to 1 µM
30 | CC(c1ccc2c(c1)OCO2)N1CCN(c2nc(C(=O)NC3CCCCC3)cs2)CC1 (racemic) [Example 33, 2-(4-(1-(Benzo[d][1,3]dioxol-5-yl)ethyl)piperazin-1-yl)-N-cyclohexylthiazole-4-carboxamide] | 0.2 to 1 µM
31 | Cc1cnc(N2CCN(C(C)c3ccc4c(c3)OCO4)CC2)s1 (racemic) [Example 36] | 0.05 to 0.2 µM
